The values that follow come from PMC2375353, “Effective treatment of experimental U-87MG human glioblastoma in nude mice with a targeted cytotoxic bombesin analogue, AN-215” (British Journal of Cancer, 2002).

In assay [1] the test system is U-87MG human glioblastomas in nude mice. The assay is described as follows: Histology of U-87MG tumours (experiment 1). The class given is in vivo, human tumour in nude mice. As to conditions: for Extent of necrosis vs control / % area of necrosis / Ratio of apoptotic to mitotic indices / Apoptotic index / Mitotic index: experiment 1 tumours; for % area of necrosis: 150 nmol kg^-1 i.v. x4, control 60.0±5.8; for % area of necrosis / Ratio of apoptotic to mitotic indices / Apoptotic index / Mitotic index / Number of AgNORs per cell: mean±s.e.; for Ratio of apoptotic to mitotic indices: control 0.38±0.06; for Apoptotic index / Mitotic index: per 1000 cells; for Apoptotic index: control 5.9±0.7; for Mitotic index: control 16.6±1.4; for Number of AgNORs per cell: silver staining, 50 cells per tumour, control 4.93±0.18. From the text:
Samples of tumour tissues were fixed in 10% buffered formalin. The specimens were embedded in Paraplast (Oxford Labware, St. Louis, MO, USA). Six μm thick sections were cut and stained with haematoxylin-eosin. Mitotic and apoptotic cells were counted in nine standard high power microscopic fields containing an average of 330 cells, and their numbers per 1000 cells were accepted as the mitotic and apoptotic indices, respectively. To eliminate errors caused by variances in thickness of slides and cellularity of areas investigated, the ratio of apoptotic to mitotic indices was calculated in each tumour. For the determination of the extent of necrosis in tumours, the crossing points of a microscope ocular net that coincided with necrosis in the slide made at the largest cross-section of each tumour were counted. The ratio of these points to the number of all points above the tumour represented the percentage area of necrosis. […] NORs are parts of DNA closely associated with nucleoli and encode for ribosomal RNA. They are also associated with argyrophylic proteins and thus can be visualised by silver staining. The amount of AgNORs is a good indicator of cell proliferation ([van Diest et al, 1998]). The silver-stained black dots in 50 cells of each tumour were counted and the AgNOR number per cell was calculated. The data were evaluated by one way analysis of variance (ANOVA) and the treated groups compared to the control by Dunnett's test.

The test system of assay [2] is hGRPR/BRS-1. The assay is described as follows: RT-PCR of hGRPR/BRS-1 mRNA in U-87MG tumours. In kind it is in vivo, human. As to conditions: experiment 1 tumours; normalised vs hGAPDH; control 15.1±1.5; change not significant. The protocol:
(§1) Total RNA was extracted from frozen tissue samples by using RNAzolB (Tel-Test, Friendswood, TX, USA) according to the manufacturer's instructions. Concentrations of total RNA were calculated by measuring the OD260 value. Total RNA (4 μg) was subjected to electrophoresis for 2 h at 70 V in 10 μl of sample buffer containing 1× MOPS buffer (pH 6.5), 6.4% formaldehyde, 48% deionized formamide, 0.25% w v^−1 bromophenol blue, 0.05% glycerol and 0.25 mg ml^−1 ethidium bromide. The RNA gel contained 1.4% agarose, 1×MOPS (pH 6.5) and 1.73% formaldehyde.
(§2) The RT–PCR was performed using Gene Amp RNA Core Kit (Perkin-Elmer, Foster City, CA, USA). To avoid genomic DNA contamination, all samples were subjected to DNase digestion before RT–PCR. RNA (2 μg) was treated with 0.3 unit of RQ1 RNase-free DNase (Promega, Madison, WI, USA) at 37°C for 30 min in 19 μl of mixture containing 5 mM MgCl2, 1× PCR buffer, 1 mM of each dNTP, 1 unit RNase inhibitor and 2.5 μM random hexamers. The reaction was terminated by enzyme denaturation at 99°C for 5 min. […]
(§3) The PCR amplification of the cDNAs for human glyceraldehyde-3-phosphate dehydrogenase (hGAPDH), GRP receptor (hGRPR, BRS-1) and neuromedin-B receptor (hNMBR, BRS-2) was performed as follows. […] The number of cycles was determined in preliminary experiments to be within the exponential range of PCR amplification.

Assay [3] relates to hNMBR/BRS-2. The assay is described as follows: RT-PCR of hNMBR/BRS-2 mRNA in U-87MG tumours. The class given is in vivo, human. As to conditions: experiment 1 tumours; normalised vs hGAPDH; control 7.6±3.5. The protocol:
as §1, §2, §3

On the set-up of assay [4]: method as in 2 sources, one per row (each row's own in cited_ref): ref Nagy et al, 1997 ||| ref not printed in the sentence (AN-201: Nagy et al, 1996). As to conditions: cited from earlier work. From the text: Current treatment options for malignant gliomas, including surgery, radiation, and chemotherapy, are of limited effectiveness, and novel therapeutic modalities must be explored. Targeting of antineoplastic agents to cancer cells by linking them to a ligand with high affinity for tumour cells should improve tumour growth inhibition and decrease peripheral toxicity ([Schally and Nagy, 1999]). The presence of high affinity receptors for bombesin (BN)-like peptides on a wide variety of tumours prompted us to employ some of our powerful BN/gastrin releasing peptide (GRP) antagonists as carrier mole ... || Recently, we developed a series of targeted cytotoxic conjugates based on analogues of peptide hormones such as luteinizing hormone-releasing hormone(LH-RH), somatostatin and BN/GRP, for which high affinity receptors are expressed on a variety of tumours ([Schally and Nagy, 1999]; [Nagy and Schally, 2001]).

As to `COc1cccc2c1C(=O)c1c(O)c3c(c(O)c1C2=O)C[C@@](O)(C(=O)CO)C[C@@H]3O[C@H]1C[C@H](N2C=CCC2)[C@H](O)[C@H](C)O1` [AN-201, 2-pyrrolino-doxorubicin], in assay [1], the “Extent of necrosis vs control” value is “only a slight and not significant change in necrosis”; the “% area of necrosis” value is given as 69.6±7.0%; the “Ratio of apoptotic to mitotic indices” value was found to be 0.36±0.04; the Apoptotic index was 5.3±0.6. Besides, in assay [1], the Mitotic index is on record as 15.2±1.5 and the “Number of AgNORs per cell” value turned out to be 4.31±0.09. In assay [2], the “hGRPR/BRS-1 mRNA expression” value came to 21.6±3.4 a.u. In assay [3], the “hNMBR/BRS-2 mRNA expression” value turned out to be 10.9±3.6 a.u. Further, the “Potency relative to DOX (fold)” value in assay [4] (in vitro, ref not printed in the sentence (AN-201: Nagy et al, 1996)) was 1000 times.
Turning to “Gln-Trp-Ala-Val-Gly-His-Leu-ψ(CH2-NH)-Leu-NH2 [AN-215]”, in assay [1], the “Extent of necrosis vs control” value is “significantly larger than in the controls”, the “% area of necrosis” value is reported as 81.7±6.7 %, the “Ratio of apoptotic to mitotic indices” value is reported as 0.85±0.25 and the Apoptotic index was 6.2±0.8. In assay [1], the Mitotic index was found to be 10.9±2.2 and the “Number of AgNORs per cell” value amounted to 4.16±0.12. Besides, the “hGRPR/BRS-1 mRNA expression” value in assay [2] stood at 25.4±5.1 a.u. For the same compound, the “hNMBR/BRS-2 mRNA expression” value in assay [3] is 3.3±1.0 a.u. Moreover, the “Antiproliferative effect” value in assay [4] (ref Nagy et al, 1997) is listed as “retains the antiproliferative effect of its cytotoxic moiety”.
